Measured values reported in patent publication US20240217926A1, “1,6-NAPHTHALENEDITHIOL PRODUCT AND PROCESS FOR PRODUCING THE SAME” (SUGAI CHEMICAL INDUSTRY CO., LTD., priority 2022, published 2024).

Tests used:
[1] = Dissolubility (maximum dissolved concentration in organic solvents, by HPLC); type: physicochemical; conditions: 25° C.; for Dissolubility DMF: N,N-dimethylformamide; for Dissolubility PGMEA: propylene glycol monomethyl ether acetate; for Dissolubility THF: tetrahydrofuran
Experimental: In each of predetermined solvents described in the Table below, a sample was mixed at a temperature of 25° C., and the dissolubility of the sample was evaluated. In more detail, the sample was added to a predetermined amount of a solvent until the sample could not be dissolved, and the sample content of the liquid phase (the solvent phase) of the resulting mixture was analyzed using an HPLC (“SPD-20A” manufactured by SHIMADZU CORPORATION), and thus the concentration (the maximum dissolved concentration) of the sample in the liquid phase (the solvent phase) was determined as a solubility.

[2] = Heat stability by differential scanning calorimetry (DSC); type: physicochemical; conditions: heat stability data by DSC
Experimental: Specifically, 2,7-naphthalenedithiol (2,7-form) described in the Patent Document 1 has a melting point of 186 to 188° C., 2,6-naphthalenedithiol (2,6-form) has a melting point of 196 to 197° C., and 1,5-naphthalenedithiol (1,5-form) described in the Nonpatent Document 1 has a melting point of 120 to 121° C. Thus, these positional isomers of naphthalenedithiol each have a high melting point and are expected to show boiling point elevation due to hydrogen bonds of mercapto groups. […] Thus, it is technically difficult to adopt purification of these naphthalenedithiols by distillation at a relatively high temperature. For example, when 1,5-form, 2,6-form, and 2,7-form are tried to be distilled under vacuum, an outflow (or exit) line is to be maintained at a high temperature in order to prevent crystallization. However, such a high temperature of the outflow line causes not only easy re-evaporation of the naphthalenedithiols in the outflow line but also crystallization and clogging of the naphthalenedithiols in a subsequent line, thus making it impossible to operate the distillation.

Dissolubility DMF [1] [% by mass] | Dissolubility Ethyl acetate [1] [% by mass] | Dissolubility Methanol [1] [% by mass] | Dissolubility PGMEA [1] [% by mass] | Dissolubility THF [1] [% by mass] | Dissolubility Toluene [1] [% by mass] | temperature at which weight decreases by 5% or more [2] [°C] | Structure (SMILES)
34.4 | 7.05 | 1.08 | 7.44 | 29.0 | 7.26 | 176 | Sc1cccc2c(S)cccc12 [Comparative Example 5, 1,5-naphthalenedithiol]
3.54 | 0.65 | 0.11 | 0.73 | 4.03 | 0.64 | 196 | Sc1ccc2cc(S)ccc2c1 [Comparative Example 6, 2,6-naphthalenedithiol]
7.75 | 0.90 | 0.16 | 1.05 | 5.24 | 0.76 | 188 | Sc1ccc2ccc(S)cc2c1 [Comparative Example 7, 2,7-naphthalenedithiol]
 |  | 19.3 |  |  |  |  | Sc1ccc2c(S)cccc2c1 [Example 1, 1,6-naphthalenedithiol]
